This experiment addresses T1, human recombinant PAK1-KD protein (Homo sapiens, UniProt Q13153).
T1 construct: made in house; host or cells: Tini cells (insect cells) infected with recombinant baculovirus
As to the kind of experiment: PAK1-KD (kinase domain) IC50 Zlyte assay. The experiment is classed as biochemical. To be noted: Z′-LYTE FRET peptide substrate (Ser/Thr19), 20 pM PAK1-KD, 60-minute incubation at 22° C. The source says:
PAK1-KD (Kinase Domain) IC50 Zlyte Assay Protocol
Activity of human recombinant PAK1-KD protein may be assessed in vitro by assay of the phosphorylation of a FRET peptide substrate. Catalytically active human recombinant PAK1-KD protein is obtained by purification from Tini cells infected with a human PAK1-KD recombinant baculovirus expression vector.
The activity/inhibition of PAK1-KD was estimated by measuring the phosphorylation of a FRET peptide substrate (Ser/Thr19) labeled with coumarin and fluorescein using Z′-LYTE™ assay (Invitrogen). The peptide substrate is a consensus sequence (KKRNRRLSVA) based on various PAK substrates reported in the scientific literature. The 10 μL assay mixtures contained 50 mM HEPES (pH 7.5), 0.01% Brij-35, 10 mM MgCl2, 1 mM EGTA, 2 μM FRET peptide substrate, and 20 pM PAK1-KD. Incubations were carried out at 22° C. in black polypropylene 384-well plates (Corning Costar). […] Following the 60-minute incubation, the assay mixtures were quenched by the addition of 5 μL of Z′-LYTETm development reagent, and 1 hour later the emissions of Coumarin (445 nm) and Fluorescein (520 nm) were determined after excitation at 400 nm using an Envision plate reader (Perkin Elmer). An emission ratio (445 nm/520 nm) was determined to quantify the degree of substrate phosphorylation.
T1 sequence (Q13153 270-521 limits assumed): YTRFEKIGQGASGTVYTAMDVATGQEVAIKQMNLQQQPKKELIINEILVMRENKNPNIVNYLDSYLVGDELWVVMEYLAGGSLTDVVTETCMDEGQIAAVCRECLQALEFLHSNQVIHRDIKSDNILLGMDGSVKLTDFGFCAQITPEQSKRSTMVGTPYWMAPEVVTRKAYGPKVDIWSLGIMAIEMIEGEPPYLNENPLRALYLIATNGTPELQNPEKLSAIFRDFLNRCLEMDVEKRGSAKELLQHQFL
Broadly, the IC50 is the concentration that inhibits the measured activity by half. In the case of `CCNc1ncc2cc(-c3ccc(S(=O)(=O)NCC)cc3Cl)c(=O)n(CC)c2n1` [Compound I-9, 3-chloro-N-ethyl-4-[8-ethyl-2-(ethylamino)-7-oxo-pyrido[2,3-d]pyrimidin-6-yl]benzenesulfonamide], the IC50 was 131 nM.

With `CCNc1ncc2cc(-c3ccc(S(=O)(=O)NC)cc3Cl)c(=O)n(C)c2n1` [Compound I-11, 3-chloro-4-[2-(ethylamino)-8-methyl-7-oxo-pyrido[2,3-d]pyrimidin-6-yl]-N-methyl-benzenesulfonamide], the IC50 is 1600 nM.

With `CCn1c(=O)c(-c2ccc(S(=O)(=O)N3CCCC3)cc2C)cc2cnc(NCCC3CCN(C)CC3)nc21` [Compound I-5, 8-ethyl-2-[2-(1-methyl-4-piperidyl)ethylamino]-6-(2-methyl-4-pyrrolidin-1-ylsulfonyl-phenyl)pyrido[2,3-d]pyrimidin-7-one], the IC50 came out at 460 nM.

Regarding `CCn1c(=O)c(-c2ccc(S(=O)(=O)NC3CC3)cc2C)cc2cnc(NCCC3CCN(C)CC3)nc21` [Compound I-6, N-cyclopropyl-4-[8-ethyl-2-[2-(1-methyl-4-piperidyl)ethylamino]-7-oxo-pyrido[2,3-d]pyrimidin-6-yl]-3-methyl-benzenesulfonamide], the IC50 turned out to be 77.1 nM.

As to `CCn1c(=O)c(-c2ccc(S(=O)(=O)N3CCOCC3)cc2C)cc2cnc(NCCC3CCN(C)CC3)nc21` [Compound I-4, 8-ethyl-6-(2-methyl-4-morpholinosulfonyl-phenyl)-2-[2-(1-methyl-4-piperidyl)ethylamino]pyrido[2,3-d]pyrimidin-7-one], the IC50 was 751 nM.

Consider `CCn1c(=O)c(-c2cccc(S(=O)(=O)N(C)C)c2)cc2cnc(NCCC3CCN(C)CC3)nc21` [Compound I-1, 3-[8-ethyl-2-[2-(1-methyl-4-piperidyl)ethylamino]-7-oxo-pyrido[2,3-d]pyrimidin-6-yl]-N,N-dimethyl-benzenesulfonamide], for which the IC50 amounted to 182 nM.

Take `CCNc1ncc2cc(-c3ccc(S(=O)(=O)NC(C)C)cc3Cl)c(=O)n(C)c2n1` [Compound I-12, 3-chloro-4-[2-(ethylamino)-8-methyl-7-oxo-pyrido[2,3-d]pyrimidin-6-yl]-N-isopropyl-benzenesulfonamide]: the IC50 was 177 nM.

Consider `CCNS(=O)(=O)c1ccc(-c2cc3cnc(NCCC4CCN(C)CC4)nc3n(CC)c2=O)c(Cl)c1` [Compound I-8, 3-chloro-N-ethyl-4-[8-ethyl-2-[2-(1-methyl-4-piperidyl)ethylamino]-7-oxo-pyrido[2,3-d]pyrimidin-6-yl]benzenesulfonamide], for which the IC50 was 22.3 nM.

Turning to `CCn1c(=O)c(-c2ccc(S(=O)(=O)N(C)C)cc2C)cc2cnc(NCCC3CCN(C)CC3)nc21` [Compound I-3, 4-[8-ethyl-2-[2-(1-methyl-4-piperidyl)ethylamino]-7-oxo-pyrido[2,3-d]pyrimidin-6-yl]-N,N,3-trimethyl-benzenesulfonamide], the IC50 stood at 1320 nM.

With `CCNS(=O)(=O)c1ccc(-c2cc3cnc(NCCC4CCN(C)CC4)nc3n(CC)c2=O)c(C)c1` [Compound I-2, N-ethyl-4-[8-ethyl-2-[2-(1-methyl-4-piperidyl)ethylamino]-7-oxo-pyrido[2,3-d]pyrimidin-6-yl]-3-methyl-benzenesulfonamide], the IC50 stood at 133 nM.

Turning to `CCn1c(=O)c(-c2cc(S(=O)(=O)N(C)C)ccc2Cl)cc2cnc(NCCC3CCN(C)CC3)nc21` [Compound I-14, 4-chloro-3-[8-ethyl-2-[2-(1-methyl-4-piperidyl)ethylamino]-7-oxo-pyrido[2,3-d]pyrimidin-6-yl]-N,N-dimethyl-benzenesulfonamide], the concentration for half-maximal inhibition (IC50) is 310 nM.

Turning to `CNS(=O)(=O)c1ccc(-c2cc3cnc(NCCC4CCN(C)CC4)nc3n(C)c2=O)c(Cl)c1` [Compound I-10, 3-chloro-N-methyl-4-[8-methyl-2-[2-(1-methyl-4-piperidyl)ethylamino]-7-oxo-pyrido[2,3-d]pyrimidin-6-yl]benzenesulfonamide], the half-maximal inhibitory concentration (IC50) was found to be 820 nM.

On to `CCn1c(=O)c(-c2ccc(S(=O)(=O)NC)cc2C)cc2cnc(NCCC3CCN(C)CC3)nc21` [Compound I-7, 4-[8-ethyl-2-[2-(1-methyl-4-piperidyl)ethylamino]-7-oxo-pyrido[2,3-d]pyrimidin-6-yl]-N,3-dimethyl-benzenesulfonamide], for which the IC50 was found to be 582 nM.

Take `CC(C)NS(=O)(=O)c1ccc(-c2cc3cnc(NCCC4CCN(C)CC4)nc3n(C)c2=O)c(Cl)c1` [Compound I-13, 3-chloro-N-isopropyl-4-[8-methyl-2-[2-(1-methyl-4-piperidyl)ethylamino]-7-oxo-pyrido[2,3-d]pyrimidin-6-yl]benzenesulfonamide]: the IC50 was 80.4 nM.
